These results are taken from patent publication US20240059691A1 (KALVISTA PHARMACEUTICALS LIMITED, priority 2020, published 2024).

Structures are written as SMILES.

This experiment deals with Human Factor XIIa (Homo sapiens (Human), UniProt P00748). Nature of the experiment: Determination of FXIIa inhibition (fluorogenic substrate H-DPro-Phe-Arg-AFC, IC50 assay). Format: biochemical. To be noted: substrate H-DPro-Phe-Arg-AFC at Km, 25° C.; class scale A-G. The protocol: Determination of FXIIa Inhibition
Sequence of Human Factor XIIa (P00748 373-615): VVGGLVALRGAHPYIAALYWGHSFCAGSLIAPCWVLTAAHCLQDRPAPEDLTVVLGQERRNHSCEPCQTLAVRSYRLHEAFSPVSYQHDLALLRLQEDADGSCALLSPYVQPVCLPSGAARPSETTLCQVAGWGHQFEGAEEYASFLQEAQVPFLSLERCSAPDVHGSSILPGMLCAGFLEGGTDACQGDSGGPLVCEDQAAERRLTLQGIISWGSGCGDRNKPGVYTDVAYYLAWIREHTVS
In vitro inhibition of Factor XIIa was determined using an IC50 assay based on standard literature methods (see e.g Baeriswyl et al., ACS Chem. Biol., 2015, 10 (8) 1861; Bouckaert et al., European Journal of Medicinal Chemistry 110 (2016) 181). Human Factor XIIa (Enzyme Research Laboratories) was incubated at 25° C. with the fluorogenic substrate H-DPro-Phe-Arg-AFC (Peptide Protein Science) and various concentrations of the test compound. Protease activity was measured by monitoring the accumulation of liberated fluorescence from the substrate over 5 min at 25° C. The linear rate of fluorescence increase per minute was expressed as percentage (%) activity. The Km for the cleavage of the substrate by FXIIa was determined by standard transformation of the Michaelis-Menten equation. The compound inhibitor assays were performed at substrate Km concentration. IC50 values were calculated as the concentration of inhibitor giving 50% inhibition (IC50) of the uninhibited enzyme activity (100%).
As a reminder, the IC50 is the point on the concentration scale where inhibition reaches its midpoint. A higher IC50 goes with weaker potency in that assay. `CN1C[C@@H]2C(COc3ccc(CNc4ccc5c(N)nccc5c4)cn3)[C@@H]2C1` (stereo partly drawn) [Example 1175, 6-N-[(6-{[(1R,5S,6S)-3-methyl-3-azabicyclo[3.1.0]hexan-6-yl]methoxy}pyridin-3-yl)methyl]isoquinoline-1,6-diamine] returned an IC50 of 0.3 to 1 µM. In the case of `CN1CCC(CNc2ccc(CNc3cc(C(F)(F)F)cc4[nH]ccc34)cn2)CC1` [Example 1237, N-((6-(((1-methylpiperidin-4-yl)methyl)amino)pyridin-3-yl)methyl)-6-(trifluoromethyl)-1H-indol-4-amine], the IC50 is 10 to 40 µM.

Molecule `CCc1cc2c(NCc3ccc(NCC4CCN(C)CC4)nc3)ccnc2[nH]1` [Example 1239, 2-ethyl-N-((6-(((1-methylpiperidin-4-yl)methyl)amino)pyridin-3-yl)methyl)-1H-pyrrolo[2,3-b]pyridin-4-amine] yielded an IC50 of 10 to 40 µM.

As for `CN1CCC(CNc2ccc(CNc3cc(Cl)cc4[nH]ccc34)cn2)CC1` [Example 1241, 6-chloro-N-((6-(((1-methylpiperidin-4-yl)methyl)amino)pyridin-3-yl)methyl)-1H-indol-4-amine], the IC50 was 10 to 40 µM. Then `Nc1nccc2c(NCc3ccc(N4CCn5c(nnc5C(F)(F)F)C4)nc3)nccc12` [Example 1318, N1-((6-(3-(trifluoromethyl)-5,6-dihydro-[1,2,4]triazolo[4,3-a]pyrazin-7(8H)-yl)pyridin-3-yl)methyl)-2,6-naphthyridine-1,5-diamine], with 10 to 40 µM. As for `COCC1c2nnc(C(F)(F)F)n2CCN1c1cc(C)c(CNc2cccc3c(N)nccc23)cn1` (stereo not drawn) [Example 1319, N5-((6-(8-(methoxymethyl)-3-(trifluoromethyl)-5,6-dihydro-[1,2,4]triazolo[4,3-a]pyrazin-7(8H)-yl)-4-methylpyridin-3-yl)methyl)isoquinoline-1,5-diamine], the figure is 0.01 to 0.1 µM; as for `Cc1cc(N2CCn3c(nnc3C(F)(F)F)C2)ncc1CNc1ccc2nccn2c1` [Example 1322, N-((4-methyl-6-(3-(trifluoromethyl)-5,6-dihydro-[1,2,4]triazolo[4,3-a]pyrazin-7(8H)-yl)pyridin-3-yl)methyl)imidazo[1,2-a]pyridin-6-amine], 10 to 40 µM; as for `Cc1cc(N2CCn3c(nnc3C(F)(F)F)C2)ncc1CNc1ccnc(N)c1` [Example 1323, N4-((4-methyl-6-(3-(trifluoromethyl)-5,6-dihydro-[1,2,4]triazolo[4,3-a]pyrazin-7(8H)-yl)pyridin-3-yl)methyl)pyridine-2,4-diamine], 10 to 40 µM. Then `CCC1c2nnc(C(F)(F)F)n2CCN1c1cc(C)c(CNc2cccc3c(N)nccc23)cn1` (stereo not drawn) [Example 1331, N5-((6-(8-ethyl-3-(trifluoromethyl)-5,6-dihydro-[1,2,4]triazolo[4,3-a]pyrazin-7(8H)-yl)-4-methylpyridin-3-yl)methyl)isoquinoline-1,5-diamine], with 0.1 to 0.3 µM; and `CN(Cc1ccc(N2CCn3c(nnc3C(F)(F)F)C2)nc1)c1cccc2c(N)nccc12` [Example 1332, N5-methyl-N5-((6-(3-(trifluoromethyl)-5,6-dihydro-[1,2,4]triazolo[4,3-a]pyrazin-7(8H)-yl)pyridin-3-yl)methyl)isoquinoline-1,5-diamine], with 3 to 10 µM; and `Cc1cc(N2CCn3c(nnc3C(F)(F)F)C2)ncc1CNc1ccc2c(N)nccc2c1` [Example 1333, N6-((4-methyl-6-(3-(trifluoromethyl)-5,6-dihydro-[1,2,4]triazolo[4,3-a]pyrazin-7(8H)-yl)pyridin-3-yl)methyl)isoquinoline-1,6-diamine], with 0.1 to 0.3 µM.

Turning to `Cc1cc(N2CCn3c(nnc3C(F)(F)F)C2)ncc1CNc1ccc2c(N)ncc(Cl)c2c1` [Example 1334, 4-chloro-N6-((4-methyl-6-(3-(trifluoromethyl)-5,6-dihydro-[1,2,4]triazolo[4,3-a]pyrazin-7(8H)-yl)pyridin-3-yl)methyl)isoquinoline-1,6-diamine], the half-inhibitory concentration (IC50) is 0.3 to 1 µM.
